Patent US20090238852A1, “METHODS FOR CONTROLLING INTRACELLULAR CALCIUM LEVELS ASSOCIATED WITH AN ISCHEMIC EVENT” (University of Utah Research Foundation, priority 2008, published 2009)

Test system: rabbit ventricular myocytes
Experiment: [Ca^++]i during paced aerobic metabolism (PH) with the Na^+ channel opener ATX
Type: cell-based
Settings: n = 7
Protocol: In these studies, intracellular calcium concentration [Ca^++]i was measured by flow cytometry. Measurement of isolated mouse and rabbit ventricular myocyte [Ca^2+]i and [Na^+]i by flow cytometry has been described (Zhang et al., J. Cardiovasc. Pharmacol. 51: 443-449 (2008); Li et al., J. Mol. Cell. Cardiol. 33: 2145-2155 (2001)). [Ca^++]i was measured with the Ca^++ sensitive fluorescent probe, Fluo 3-AM (Molecular Probes, Eugene, Oreg.), using a FACScan (Becton-Dickinson, MA). The cells were exposed to 4 μmol/L Fluo-3 AM for 30 min at 37° C. The cells were then separated into aliquots. After 40 min of wash, the cells were exposed to paced metabolic ischemia (MI) for 45 min at 37° C. Metabolic ischemia was accomplished by incubating cells in a glucose-free MKRBB solution (pH 7.40) containing 2 mmol/L sodium cyanide (NaCN) to impair mitochondrial and glycolytic generation of ATP. To reproduce the situation in the beating ischemic heart, during the period of metabolic ischemia, myocytes were placed in a 5-well chamber with equal volumes of myocyte suspensions from the same heart dissociation placed in each well. The chamber was water bathed to maintain temperature at 37° C. and bubbled with 5% CO2 in air to keep myocytes in suspension. […] Approximately 2×10^3 myocytes were analyzed to calculate average emission fluorescence intensity in each sample. […] Only those cells with low fluorescence intensity at 670 nm (PI-negative cells or viable cells) were included in the comparative analysis of [Ca^++]i. The sample [Ca^2+]i values were calculated by Mn^2+ quenching (Sugishita et al, 2001) and [Na^+]i values by comparison with a standard curve of varied [Na^+]i versus Na Green fluorescence. […] Results were expressed as means±SEM. […]
To further examine the role of ODSH as a Na^+ inhibitor, additional experiments were performed in which the Na^+ channel opener amenone toxin II (ATX) was added to medium in a final concentration of 20 nmol/L to open the cardiac myocyte membrane Na^+ channel. […] Intracellular calcium concentration [Ca^++]i was monitored as earlier. […]

2-O, 3-O desulfated heparin [ODSH]
[Ca^++]i (PH + ODSH 100 μg/mL + ATX 20 nmol/L, PH + ATX 529.1 ± 29.3): 412.9 ± 26.7^+ nM | [Ca^++]i (PH + ODSH 100 μg/mL, no ATX, PH alone 406.8 ± 15.9): 366.4 ± 21.1 nM
